Test [1] relates to Phakopsora pachyrhizi. The test can be described thus: Example D: comparative activity against Phakopsora pachyrhizi (soybean rust), soybean plants sprayed, leaf disks cut from treated plants. Format: in vivo. As to conditions: 0.1% OCHIMA, leaf disks cut one day after application, approx. 12 dpi. The protocol:
Method: Soybean plants are sprayed in a spray chamber with formulated DMSO compound solutions which are diluted to the appropriate concentration with 0.1% […] (adjuvant comprising polyethoxylated sorbitol hexaoleate and tris(2-ethylhexyl) phosphate) just before spraying. Leaf disks are cut from treated plants and placed on agar into 24-well plates one day after application. After, the leaf disks are inoculated with a spore suspension of the fungus. After appropriate incubation the activity of a compound is assessed approx. 12 dpi (days after inoculation) as preventive fungicidal activity. The data are presented as the percentage of disease control of each compound for the biological tests and testing rates described below in Table 1.

In the next test the test system is Puccinia recondita. The experiment in a line: Example C: comparative activity against Puccinia recondita (brown rust), curative, wheat leaf segments. Format: in vivo. Conditions: 8 dpi. As for the experimental part:
Method; Wheat leaf segments are placed on agar in multiwell plates (24-well format). The leaf segments are inoculated with a spore suspension of the fungus and sprayed with test solutions 1 day after inoculation. After appropriate incubation the activity of a compound is assessed 8 dpi (days after inoculation) as curative fungicidal activity. The data are presented as the percentage of disease control of each compound for the biological tests and testing rates described below in table H.

The subject of test [2] is Phakopsora pachyrhizi. The test can be described thus: Example E: comparative activity against Phakopsora pachyrhizi (soybean rust), soybean leaf disks sprayed. Conditions: 0.025% Tween20, approx. 12 dpi. Format: in vivo. The protocol: Method: Compounds to be tested are prepared as DMSO solutions which are diluted to the appropriate concentration with 0.025% Tween20 just before spraying. Soybean leaf disks are placed on agar in multiwell plates (24-well format) and sprayed with test solutions. After drying, the leaf disks are inoculated with a spore suspension of the fungus. After appropriate incubation the activity of a compound is assessed approx. 12 dpi (days after inoculation) as preventive fungicidal activity. The data are presented as the percentage of disease control of each compound for the biological tests and testing rates described below in Table J.

Test [3] deals with Erysiphe graminis f. sp. tritici. The test can be described thus: Erysiphe graminis f. sp. tritici (wheat powdery mildew), wheat leaf segments, preventive. In kind it is in vivo. As to conditions: Blumeria graminis, foliar, 168 h, 7 dpi, compared to untreated control. As for the experimental part: Wheat leaf segments are placed on agar in multiwell plates (24-well format) and sprayed with test solutions. After drying, the leaf disks are inoculated with spores of the fungus. After appropriate incubation the activity of a compound is assessed 7 dpi (days post inoculation) as preventive fungicidal activity.

The test system of the next test is Mycosphaerella arachidis. The experiment in a line: Mycosphaerella arachidis syn. Cercospora arachidicola (brown leaf spot of peanut), liquid culture growth inhibition. In kind it is cell-based. Conditions: nutrient broth (PDB), approximately 5-6 days, photometric at 620 nm, compared to untreated control. The protocol:
Conidia of the fungus from cryogenic storage were directly mixed into nutrient broth (PDB potato dextrose broth). A DMSO solution of the test compounds was placed into a microtiter plate (96-well format) and the nutrient broth containing the fungal spores was added to it. The test plates were incubated at 24° C. and the inhibition of growth was determined photometrically after approximately 5-6 […] at 620 nm.

The next test deals with Monographella nivalis. The test can be described thus: Monographella nivalis syn. Microdochium nivale (snow mould, foot rot of cereals), liquid culture growth inhibition. Format: cell-based. As to conditions: nutrient broth (PDB), 72 hrs, photometric at 620 nm, compared to untreated control. The protocol:
Conidia of the fungus from cryogenic storage were directly mixed into nutrient broth (PDB potato dextrose broth). A DMSO solution of the test compounds was placed into a microtiter plate (96-well format) and the nutrient broth containing the fungal spores was added to it. The test plates were incubated at 24° C. and the inhibition of growth was determined photometrically after 72 hrs at 620 nm. […] Cercospora arachidicola (Brown Leaf Spot of Peanut): […]

Test [4] has as its system Puccinia recondita f. sp. tritici. The test can be described thus: Puccinia recondita (brown rust), preventative, wheat leaf segments. In kind it is in vivo. Conditions: foliar, 192 h, 8 dpi, compared to untreated control. As for the experimental part:
Wheat leaf segments are placed on agar in multiwell plates (24-well format) and sprayed with test solutions. After drying, the leaf segments are inoculated with a spore suspension of the fungus. After appropriate incubation the activity of a compound is assessed 8 dpi (days after inoculation) as preventative fungicidal activity.

The test system of another test is Pyricularia oryzae. The test can be described thus: whole plant or invertebrate. As to conditions: foliar, 120 h, read-out: control of Pyricularia oryzae. In kind it is in vivo.
A further test concerns Plasmopara viticola. The experiment in a line: Plasmopara viticola (downy mildew of grapevine), grape vine leaf disks, preventive. In kind it is in vivo. As to conditions: foliar, 168 h, 7 dpi, compared to untreated control. The protocol: Grape vine leaf disks are placed on agar in multiwell plates (24-well format) and sprayed with test solutions. After drying, the leaf disks are inoculated with a spore suspension of the fungus. After appropriate incubation the activity of a compound is assessed 7 dpi (days after inoculation) as preventive fungicidal activity.

The test system of the next test is Glomerella lagenarium. The test can be described thus: Glomerella lagenarium syn. Colletotrichum lagenarium (anthracnose of cucurbits), liquid culture growth inhibition. Format: cell-based. As to conditions: Colletotrichum orbiculare, nutrient broth (PDB), 72 hrs, photometric at 620 nm, compared to untreated control. As for the experimental part: Glomerella lagenarium Syn. Colletotrichum lagenarium (Anthracnose of Cucurbits): Conidia of the fungus from cryogenic storage were directly mixed into nutrient broth (PDB potato dextrose broth). A DMSO solution of the test compounds was placed into a microtiter plate (96-well format) and the nutrient broth containing the fungal spores was added to it. The test plates were incubated at 24° C. and the inhibition of growth was determined photometrically after 72 hrs at 620 nm. […]

For test [5], the system named is Puccinia recondita f. sp. tritici. The experiment in a line: Puccinia recondita (brown rust), curative, wheat leaf segments. In kind it is in vivo. As to conditions: foliar, 192 h, sprayed 1 day after inoculation, 8 dpi, compared to untreated control. As for the experimental part:
Wheat leaf segments are placed on agar in multiwell plates (24-well format). The leaf segments are inoculated with a spore suspension of the fungus and sprayed with test solutions 1 day after inoculation. After appropriate incubation the activity of a compound is assessed 8 dpi (days after inoculation) as curative fungicidal activity.

Take `CO/C=C(\Oc1cc(C#CC2CCCCC2)ccc1C)C(=O)OC` [Compound X-1, reference compound]: the “control (%) Phakopsora pachyrhizi (Soybean rust)” value (“control (%) Phakopsora pachyrhizi” for short) with Phakopsora pachyrhizi [1] (6 ppm) is recorded as 0%; with Phakopsora pachyrhizi [1] (20 ppm), 0%; with Phakopsora pachyrhizi [1] (60 ppm) it was 0%; with Phakopsora pachyrhizi [1] (200 ppm), 63%; in the test on Phakopsora pachyrhizi [2] (0.6 ppm), 0%; with Phakopsora pachyrhizi [2] (2 ppm), 0%. Besides, the “control (%) Phakopsora pachyrhizi” value stood at 35% in the test with Phakopsora pachyrhizi [2] (6 ppm), 80% in the test with Phakopsora pachyrhizi [2] (20 ppm), 100% in the test on Phakopsora pachyrhizi [2] (60 ppm) and 100% with Phakopsora pachyrhizi [2] (200 ppm). Further, the “control (%) Puccinia recondita (Brown rust), curative” value with Puccinia recondita (20 ppm), in the test with Puccinia recondita (60 ppm) and in the test on Puccinia recondita (200 ppm) was 0% each time.

Turning to `CO/C=C(\Oc1cccc(C(C)(C)C)c1)C(=O)OC` [Compound X-2, reference compound], the “control (%) Phakopsora pachyrhizi” value in the test with Phakopsora pachyrhizi [1] (6 ppm), with Phakopsora pachyrhizi [1] (20 ppm), with Phakopsora pachyrhizi [1] (60 ppm), in the test on Phakopsora pachyrhizi [1] (200 ppm), in the test on Phakopsora pachyrhizi [2] (0.6 ppm) and in the test with Phakopsora pachyrhizi [2] (2 ppm) was 0% in each case. Also, the “control (%) Phakopsora pachyrhizi” value with Phakopsora pachyrhizi [2] (6 ppm) turned out to be 0%; in the test on Phakopsora pachyrhizi [2] (20 ppm), 0%; in the test on Phakopsora pachyrhizi [2] (60 ppm) it was 10%; with Phakopsora pachyrhizi [2] (200 ppm), 10%. Also, the “control (%) Puccinia recondita (Brown rust), curative” value in the test with Puccinia recondita (20 ppm), in the test on Puccinia recondita (60 ppm) and with Puccinia recondita (200 ppm) was 0% in each case.

By inhibition of growth is commonly meant the relative decrease from the control value, in per cent. Higher therefore signals a strong effect. Turning to `CO/C=C(\Oc1cc(C2CCC(C(F)(F)F)CC2)ccc1C)C(=O)OC` (stereo not drawn) [E.1, methyl (Z)-3-methoxy-2-[2-methyl-5-[4-(trifluoromethyl)cyclohexyl]phenoxy] prop-2-enoate], the pest or weed control at 200 ppm in [3] and in test [4] was not below 80% each time. Moreover, the inhibition of growth at 20 ppm in the test on Mycosphaerella arachidis and in the test with Monographella nivalis was not below 80% each time.

Take `CO/C=C(\Oc1cc(C2CCCCCC2)ccc1C)C(=O)OC` [E.3, methyl (Z)-2-(5-cyclohepty1-2-methyl-phenoxy)-3-methoxy-prop-2-enoate]: the pest or weed control at 200 ppm (in the test on Pyricularia oryzae; in the test on Plasmopara viticola; in test [3]; in test [4]) was not below 80% throughout. For the same compound, the inhibition of growth at 20 ppm in the test on Mycosphaerella arachidis, in the test with Monographella nivalis and with Glomerella lagenarium was not below 80% each time.

On to `CO/C=C(\Oc1cc(C2CCCCC2)ccc1Br)C(=O)OC` [E.8, methyl (Z)-2-(2-bromo-5-cyclohexyl-phenoxy)-3-methoxy-prop-2-enoate], for which the pest or weed control at 200 ppm (with Plasmopara viticola; in [3]; in test [4]) was not below 80% in each case. Also, the inhibition of growth at 20 ppm with Mycosphaerella arachidis and in the test with Monographella nivalis was not below 80% throughout.

Regarding `CO/C=C(\Oc1cc(C2CCCCC2)ccc1OC)C(=O)OC` [E.10, methyl (Z)-2-(5-cyclohexy1-2-methoxy-phenoxy)-3-methoxy-prop-2-enoate], the pest or weed control at 200 ppm (with Plasmopara viticola; in test [3]; in [4]) was not below 80% each time. The inhibition of growth at 20 ppm in the test on Mycosphaerella arachidis and in the test with Monographella nivalis was not below 80% in each case.

`CO/C=C(\Oc1cc(C2CCCCC2)ccc1F)C(=O)OC` [E.11, methyl (Z)-2-(5-cyclohexy1-2-fluoro-phenoxy)-3-methoxy-prop-2-enoate]: the pest or weed control at 200 ppm (with Plasmopara viticola; in [3]) was not below 80% throughout. Moreover, the inhibition of growth at 20 ppm in the test on Mycosphaerella arachidis, with Monographella nivalis and in the test on Glomerella lagenarium was not below 80% throughout.

`CO/C=C(\Oc1cc(C2CCC(C(C)C)CC2)ccc1C)C(=O)OC` (stereo not drawn) [E.17, methyl (Z)-2-[5-(4-isopropylcyclohexyl)-2-methyl-phenoxy]-3-methoxy-prop-2-enoate] yielded a pest or weed control at 200 ppm in [3] not below 80%. The inhibition of growth at 20 ppm in the test on Mycosphaerella arachidis, with Monographella nivalis and in the test with Glomerella lagenarium was not below 80% throughout.

For `CO/C=C(\Oc1cc(C2CCC(OC)CC2)ccc1C)C(=O)OC` (stereo not drawn) [E.19, methyl (Z)-3-methoxy-2-[5-(4-methoxycyclohexyl)-2-methyl-phenoxy]prop-2-enoate], the pest or weed control at 200 ppm (in the test on Plasmopara viticola; in [3]; in test [5]; in [4]) was not below 80% in each case. Further, the inhibition of growth at 20 ppm in the test on Mycosphaerella arachidis, in the test with Monographella nivalis and in the test with Glomerella lagenarium was not below 80% each time.

In the case of `CO/C=C(\Oc1cc(C2=CCCCCC2)ccc1C)C(=O)OC` [F.5, methyl (Z)-2-[5-(cyclohepten-1-yl)-2-methyl-phenoxy]-3-methoxy-prop-2-enoate], the pest or weed control at 200 ppm (in the test with Plasmopara viticola; in [3]) was not below 80% each time. Further, the inhibition of growth at 20 ppm with Mycosphaerella arachidis, with Monographella nivalis and with Glomerella lagenarium was not below 80% throughout.

Consider `CO/C=C(\Oc1cc(C2=CCC(O)CC2)ccc1C)C(=O)OC` (stereo not drawn) [F.8, methyl (Z)-2-[5-(4-hydroxycyclohexen-1-yl)-2-methyl-phenoxy]-3-methoxy-prop-2-enoate], for which the pest or weed control at 200 ppm in [3] and in [4] was not below 80% each time. In addition, the inhibition of growth at 20 ppm with Mycosphaerella arachidis and in the test on Monographella nivalis was not below 80% in each case.

As to `CO/C=C(\Oc1cc(C2=CCC(C)(C)CC2)ccc1C)C(=O)OC` [F.10, methyl (Z)-2-[5-(4,4-dimethylcyclohexen-1-yl)-2-methyl-phenoxy]-3-methoxy-prop-2-enoate], the pest or weed control at 200 ppm (with Plasmopara viticola; in [3]; in test [4]) was not below 80% in each case. Besides, the inhibition of growth at 20 ppm with Mycosphaerella arachidis, in the test on Monographella nivalis and with Glomerella lagenarium was not below 80% in each case.

For the origin of these results see patent US12262710B2, “Fungicidal compounds” (SYNGENTA CROP PROTECTION AG, priority 2019, dated 2025).
